ChEMBL document CHEMBL1201862, “PubChem BioAssay data set” (2004)
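Each compound was tested at five concentrations against cells in 96-well plates for 48 hours. GI50 is the concentration that inhibits growth by half.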 Activity calls are given as the source filed them. No stated cut-off is given here; in the data, active = GI50 up to about 1.1 µM and inactive = higher.

Legend:
Experiment in all cases: NCI tumour cell line growth inhibition, 48 h
NCI-H226 = system: NCI-H226
UACC-257 = system: UACC-257
786-0 = system: 786-0
NCI/ADR-RES = system: NCI/ADR-RES
OVCAR-8 = system: OVCAR-8
SR = system: SR
ACHN = system: ACHN
KM12 = system: KM12
HCT-15 = system: HCT-15
CAKI-1 = system: CAKI-1
HCT-116 = system: HCT-116
T47D = system: T47D
HOP-62 = system: HOP-62
BT-549 = system: BT-549
HOP-92 = system: HOP-92
NCI-H460 = system: NCI-H460
PC-3 = system: PC-3
TK-10 = system: TK-10
HT-29 = system: HT-29
IGROV-1 = system: IGROV-1
HCC 2998 = system: HCC 2998
OVCAR-3 = system: OVCAR-3
SK-MEL-28 = system: SK-MEL-28
SF-539 = system: SF-539
MDA-MB-231 = system: MDA-MB-231
SN12C = system: SN12C
EKVX = system: EKVX
SK-MEL-5 = system: SK-MEL-5
MDA-N = system: MDA-N
K562 = system: K562
MDA-MB-435 = system: MDA-MB-435
NCI-H522 = system: NCI-H522
A498 = system: A498
SNB-75 = system: SNB-75
Malme-3M = system: Malme-3M
SF-268 = system: SF-268
U-251 = system: U-251
LOX IMVI = system: LOX IMVI
SF-295 = system: SF-295
A549 = system: A549
COLO 205 = system: COLO 205
OVCAR-4 = system: OVCAR-4
MOLT-4 = system: MOLT-4
RPMI-8226 = system: RPMI-8226
UO-31 = system: UO-31
DU-145 = system: DU-145
RXF 393 = system: RXF 393
UACC-62 = system: UACC-62
SNB-19 = system: SNB-19
OVCAR-5 = system: OVCAR-5
Hs-578T = system: Hs-578T
NCI-H23 = system: NCI-H23
M14 = system: M14
SW-620 = system: SW-620
MCF7 = system: MCF7
SK-MEL-2 = system: SK-MEL-2
CCRF-CEM = system: CCRF-CEM
HL-60 = system: HL-60
SK-OV-3 = system: SK-OV-3

Measured: GI50

CC(=O)OC1CCC2(C)C(CCC3C2CC(=O)C2(C)C3CC(N3CC3)C2C(C)=O)C1 (centres undefined)
inactive: NCI-H226 19.1 µM | UACC-257 17.3 µM | 786-0 18.6 µM | NCI/ADR-RES 24.6 µM | OVCAR-8 14 µM | SR 1.78 µM | ACHN 13.8 µM | KM12 17.1 µM | CAKI-1 16.1 µM | HCT-116 20.7 µM | T47D 18.7 µM | HOP-62 24.5 µM | BT-549 17.4 µM | HOP-92 18.4 µM | NCI-H460 12.4 µM | PC-3 14.1 µM | TK-10 19.6 µM | HT-29 22.6 µM | IGROV-1 13.6 µM | HCC 2998 15.4 µM | OVCAR-3 26.2 µM | SK-MEL-28 30.7 µM | SF-539 11.8 µM | MDA-MB-231 16.7 µM | SN12C 21.9 µM | EKVX 18.4 µM | SK-MEL-5 15.2 µM | MDA-N 21.8 µM | K562 15.2 µM | MDA-MB-435 17.9 µM | NCI-H522 12.2 µM | A498 19.6 µM | SNB-75 17.2 µM | Malme-3M 18.7 µM | SF-268 11.6 µM | U-251 17.2 µM | LOX IMVI 5.33 µM | SF-295 5.71 µM | A549 27.4 µM | COLO 205 15.8 µM | OVCAR-4 19.8 µM | MOLT-4 2.11 µM | RPMI-8226 18 µM | UO-31 18 µM | DU-145 32.6 µM | RXF 393 16.5 µM | UACC-62 16.2 µM | SNB-19 20.9 µM | OVCAR-5 37.4 µM | Hs-578T 15.1 µM | NCI-H23 16.7 µM | M14 20.2 µM | SW-620 21.1 µM | MCF7 15.4 µM | SK-MEL-2 17.5 µM
18.9 µM: HCT-15

COc1cc2cccc(N)c2cc1OC
inactive: NCI-H226 > 100 µM | UACC-257 > 100 µM | 786-0 > 100 µM | NCI/ADR-RES > 100 µM | OVCAR-8 > 100 µM | SR > 45.3 µM | ACHN > 100 µM | KM12 > 100 µM | CCRF-CEM > 80.5 µM | HL-60 > 100 µM | CAKI-1 > 100 µM | HCT-116 > 100 µM | T47D > 100 µM | HOP-62 > 100 µM | BT-549 > 66.7 µM | NCI-H460 > 100 µM | PC-3 > 100 µM | TK-10 > 26.3 µM | HT-29 > 100 µM | IGROV-1 > 100 µM | HCC 2998 > 100 µM | OVCAR-3 > 100 µM | SK-MEL-28 > 100 µM | SK-OV-3 > 100 µM | SF-539 > 100 µM | MDA-MB-231 > 100 µM | SN12C > 100 µM | EKVX > 100 µM | SK-MEL-5 > 100 µM | MDA-N > 100 µM | K562 > 100 µM | MDA-MB-435 > 100 µM | NCI-H522 > 100 µM | A498 > 100 µM | SNB-75 > 100 µM | Malme-3M > 100 µM | SF-268 > 100 µM | U-251 > 100 µM | LOX IMVI > 100 µM | SF-295 > 100 µM | A549 > 100 µM | COLO 205 > 100 µM | OVCAR-4 > 100 µM | MOLT-4 > 100 µM | RPMI-8226 > 100 µM | UO-31 > 100 µM | DU-145 > 100 µM | RXF 393 > 100 µM | UACC-62 > 100 µM | SNB-19 > 100 µM | OVCAR-5 > 100 µM | Hs-578T > 100 µM | NCI-H23 > 100 µM | M14 > 100 µM | SW-620 > 100 µM | MCF7 > 100 µM | SK-MEL-2 > 100 µM
> 100 µM: HCT-15
